These compounds were tested against T1, human TLR9 (Homo sapiens, UniProt Q9NR96) (assay: TLR9 inhibition reporter assay (HEK-Blue SEAP)). Conditions: HEK-Blue cells overexpressing human TLR9, ODN2006 5 nM, 22 hour incubation.
T1 construct: host or cells: HEK-Blue cells
T1 sequence (Q9NR96 26-1032): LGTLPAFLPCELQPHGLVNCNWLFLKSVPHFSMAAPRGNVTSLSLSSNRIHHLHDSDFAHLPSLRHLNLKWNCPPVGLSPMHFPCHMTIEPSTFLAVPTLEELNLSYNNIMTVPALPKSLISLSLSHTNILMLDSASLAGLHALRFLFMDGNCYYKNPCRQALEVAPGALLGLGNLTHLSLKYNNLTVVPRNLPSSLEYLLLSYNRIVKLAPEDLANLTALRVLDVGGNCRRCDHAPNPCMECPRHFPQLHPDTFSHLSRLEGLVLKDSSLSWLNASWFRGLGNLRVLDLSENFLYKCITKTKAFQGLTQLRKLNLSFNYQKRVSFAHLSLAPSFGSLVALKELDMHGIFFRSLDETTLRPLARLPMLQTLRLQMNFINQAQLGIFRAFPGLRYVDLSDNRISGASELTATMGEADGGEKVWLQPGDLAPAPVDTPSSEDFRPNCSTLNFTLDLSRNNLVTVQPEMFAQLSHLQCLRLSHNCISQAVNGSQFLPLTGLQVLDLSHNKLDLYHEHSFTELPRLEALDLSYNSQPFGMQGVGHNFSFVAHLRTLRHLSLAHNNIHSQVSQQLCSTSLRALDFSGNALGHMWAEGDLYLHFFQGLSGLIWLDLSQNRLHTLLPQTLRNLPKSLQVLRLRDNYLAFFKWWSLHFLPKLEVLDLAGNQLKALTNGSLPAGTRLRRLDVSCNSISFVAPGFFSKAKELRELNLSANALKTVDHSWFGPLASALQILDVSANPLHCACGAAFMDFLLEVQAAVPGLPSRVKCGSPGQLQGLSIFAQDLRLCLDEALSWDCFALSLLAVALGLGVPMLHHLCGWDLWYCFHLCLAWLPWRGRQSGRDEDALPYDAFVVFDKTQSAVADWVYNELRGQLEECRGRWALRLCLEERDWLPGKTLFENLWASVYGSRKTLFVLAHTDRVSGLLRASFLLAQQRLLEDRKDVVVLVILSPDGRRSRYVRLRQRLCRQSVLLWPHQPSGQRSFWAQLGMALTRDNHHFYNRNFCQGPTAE
Assay type: cell-based
In short: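 Human TLR7/8/9 HEK-Blue reporter lines; dose range 0.05 nM–50 μM; 30 min RT preincubation; stimulus gardiquimod 7.5 μM / R848 15.9 μM / ODN2006 5 nM respectively; 22 h, 37 °C; SEAP detected colorimetrically.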

**Q.** With `COc1c(C)c(-c2cc3[nH]c(=O)n(C4CCC(N5CCC(F)(F)CC5)CC4)c3cc2C(C)C)cn2ncnc12` (single isomer, unassigned) [Example 229, 1-(4-(4,4-difluoropiperidin-1-yl)cyclohexyl)-6-isopropyl-5-(8-methoxy-7-methyl-[1,2,4]triazolo[1,5-a]pyridin-6-yl)-1,3-dihydro-2H-benzo[d]imidazol-2-one] as the compound, how does the IC50 read?
**A.** 30 µM

**Q.** For `Cc1cc2c(cc1-c1cc(C)c3ncnn3c1)[nH]c(=O)n2[C@@H]1CCCN(C(C)C)C1` [Example 17, (R)-1-(1-isopropylpiperidin-3-yl)-6-methyl-5-(8-methyl-[1,2,4]triazolo[1,5-a]pyridin-6-yl)-1,3-dihydro-2H-benzo[d]imidazol-2-one], which IC50 is on record?
**A.** 5.69 µM

**Q.** With `Cc1cc2c(cc1-c1cc(C)c3ncnn3c1)[nH]c(=O)n2[C@@H]1CCCN(C)C1` [Example 15, (R)-6-methyl-5-(8-methyl-[1,2,4]triazolo[1,5-a]pyridin-6-yl)-1-(1-methylpiperidin-3-yl)-1,3-dihydro-2H-benzo[d]imidazol-2-one] as the compound, how does the IC50 read?
**A.** 5.94 µM

**Q.** `COc1cc(-c2cc3[nH]c(=O)n(C4CCC(N5CCNC(=O)C5)CC4)c3cc2C(C)C)cn2ncnc12` (single isomer, unassigned) [Example 234, 6-isopropyl-5-(8-methoxy-[1,2,4]triazolo[1,5-a]pyridin-6-yl)-1-(4-(3-oxopiperazin-1-yl)cyclohexyl)-1,3-dihydro-2H-benzo[d]imidazol-2-one] was tested. Which IC50 did it give?
**A.** > 50 µM

**Q.** With `COc1cc(-c2cc3[nH]c(=O)n([C@H]4CC[C@H](N(C)C)CC4)c3cc2C(C)C)cn2ncnc12` [Example 202, 1-((1r,4r)-4-(dimethylamino)cyclohexyl)-6-isopropyl-5-(8-methoxy-[1,2,4]triazolo[1,5-a]pyridin-6-yl)-1,3-dihydro-2H-benzo[d]imidazol-2-one] as the compound, how does the IC50 read?
**A.** 23 µM

**Q.** How did the IC50 turn out when `COc1cc(-c2cc3[nH]c(=O)n(C4CCC(N5CC(OC)C5)CC4)c3cc2C(C)C)cn2ncnc12` (centres unmarked) [Example 238, 6-isopropyl-5-(8-methoxy-[1,2,4]triazolo[1,5-a]pyridin-6-yl)-1-(4-(3-methoxyazetidin-1-yl)cyclohexyl)-1,3-dihydro-2H-benzo[d]imidazol-2-one] was run?
**A.** 8.09 µM

**Q.** `CCCN(CCC)[C@H]1CC[C@@H](n2c(=O)[nH]c3cc(-c4cn5ncnc5c(C)c4C)c(C(C)C)cc32)CC1` [Example 199, 5-(7,8-dimethyl-[1,2,4]triazolo[1,5-a]pyridin-6-yl)-1-((1s,4s)-4-(dipropylamino)cyclohexyl)-6-isopropyl-1,3-dihydro-2H-benzo[d]imidazol-2-one] was tested. Which IC50 did it give?
**A.** 3.37 µM

**Q.** For `CCc1cc2c(cc1-c1cc(OC)c3ncnn3c1)[nH]c(=O)n2[C@@H]1CCCN(C2CCOC2)C1` (stereo partly drawn) [Example 212, 6-ethyl-5-(8-methoxy-[1,2,4]triazolo[1,5-a]pyridin-6-yl)-1-((3R)-1-(tetrahydrofuran-3-yl)piperidin-3-yl)-1,3-dihydro-2H-benzo[d]imidazol-2-one], which IC50 is on record?
**A.** > 50 µM

**Q.** For `COCCN1CCC[C@@H](n2c(=O)[nH]c3cc(-c4cc(OC)c5ncnn5c4)c(C(C)C)cc32)C1` (single isomer, unassigned) [Example 225], which IC50 is on record?
**A.** 33.8 µM

**Q.** Which IC50 does the source give for `COc1cc(-c2cc3[nH]c(=O)n([C@H]4CC[C@H](NC5COC5)CC4)c3cc2C(C)C)cn2ncnc12` [Example 201, 6-isopropyl-5-(8-methoxy-[1,2,4]triazolo[1,5-a]pyridin-6-yl)-1-((1r,4r)-4-(oxetan-3-ylamino)cyclohexyl)-1,3-dihydro-2H-benzo[d]imidazol-2-one] here?
**A.** 22.9 µM

**Q.** For `CCc1cc2c(cc1-c1cc(OC)c3ncnn3c1)[nH]c(=O)n2[C@H]1CC[C@@H](N(CC)CC)CC1` [Example 169, 1-((1s,4s)-4-(diethylamino)cyclohexyl)-6-ethyl-5-(8-methoxy-[1,2,4]triazolo[1,5-a]pyridin-6-yl)-1,3-dihydro-2H-benzo[d]imidazol-2-one], which IC50 is on record?
**A.** 18.3 µM

**Q.** For `COc1cc(-c2cc3[nH]c(=O)n(C4CCC(N5CC6(CCOCC6)C5)CC4)c3cc2C(C)C)cn2ncnc12` (single isomer, unassigned) [Example 235, 1-(4-(7-oxa-2-azaspiro[3.5]nonan-2-yl)cyclohexyl)-6-isopropyl-5-(8-methoxy-[1,2,4]triazolo[1,5-a]pyridin-6-yl)-1,3-dihydro-2H-benzo[d]imidazol-2-one], which IC50 is on record?
**A.** 11.2 µM

**Q.** With `CCC(CC)CN[C@H]1CC[C@@H](n2c(=O)[nH]c3cc(-c4cc(OC)c5ncnn5c4)c(C(C)C)cc32)CC1` [Example 194] as the compound, how does the IC50 read?
**A.** 2.08 µM

**Q.** Which IC50 does the source give for `COc1cc(-c2cc3[nH]c(=O)n(C4CCC(N5CCNC(=O)C5)CC4)c3cc2C(C)C)cn2ncnc12` (centres unmarked) [Example 243, 6-isopropyl-5-(8-methoxy-[1,2,4]triazolo[1,5-a]pyridin-6-yl)-1-(4-(3-oxopiperazin-1-yl)cyclohexyl)-1,3-dihydro-2H-benzo[d]imidazol-2-one] here?
**A.** > 50 µM

**Q.** Which IC50 does the source give for `COc1cc(-c2cc3[nH]c(=O)n(C4CCN(CCS(C)(=O)=O)CC4)c3cc2C(C)C)cn2ncnc12` [Example 224, 6-isopropyl-5-(8-methoxy-[1,2,4]triazolo[1,5-a]pyridin-6-yl)-1-(1-(2-(methylsulfonyl)ethyl)piperidin-4-yl)-1,3-dihydro-2H-benzo[d]imidazol-2-one] here?
**A.** > 50 µM

**Q.** Which IC50 does the source give for `CCN1CCC[C@H](n2c(=O)[nH]c3cc(-c4cc(C)c5ncnn5c4)c(C)cc32)C1` [Example 12, (S)-1-(1-ethylpiperidin-3-yl)-6-methyl-5-(8-methyl-[1,2,4]triazolo[1,5-a]pyridin-6-yl)-1,3-dihydro-2H-benzo[d]imidazol-2-one] here?
**A.** 7.64 µM

**Q.** How did the IC50 turn out when `CCc1cc2c(cc1-c1cc(OC)c3ncnn3c1)[nH]c(=O)n2[C@@H]1CCCN(C2CCOC2)C1` (stereo partly drawn) [Example 213, 6-ethyl-5-(8-methoxy-[1,2,4]triazolo[1,5-a]pyridin-6-yl)-1-((3R)-1-(tetrahydrofuran-3-yl)piperidin-3-yl)-1,3-dihydro-2H-benzo[d]imidazol-2-one] was run?
**A.** > 50 µM

**Q.** Which IC50 does the source give for `COc1c(C)c(-c2cc3[nH]c(=O)n(C4CCC(N5CCC(F)(F)CC5)CC4)c3cc2C(C)C)cn2ncnc12` (single isomer, unassigned) [Example 230, 1-(4-(4,4-difluoropiperidin-1-yl)cyclohexyl)-6-isopropyl-5-(8-methoxy-7-methyl-[1,2,4]triazolo[1,5-a]pyridin-6-yl)-1,3-dihydro-2H-benzo[d]imidazol-2-one] here?
**A.** > 50 µM

**Q.** `Cc1c(-c2cc3[nH]c(=O)n([C@H]4CC[C@@H](NCC5CCOCC5)CC4)c3cc2C(C)C)cn2ncnc2c1C` [Example 200, 5-(7,8-dimethyl-[1,2,4]triazolo[1,5-a]pyridin-6-yl)-6-isopropyl-1-((1s,4s)-4-(((tetrahydro-2H-pyran-4-yl)methyl)amino)cyclohexyl)-1,3-dihydro-2H-benzo[d]imidazol-2-one] was tested. Which IC50 did it give?
**A.** 7.05 µM

**Q.** `COc1cc(-c2cc3[nH]c(=O)n([C@H]4CC[C@@H](NC5CCOCC5)CC4)c3cc2C(C)C)cn2ncnc12` [Example 193, 6-isopropyl-5-(8-methoxy-[1,2,4]triazolo[1,5-a]pyridin-6-yl)-1-((1s,4s)-4-((tetrahydro-2H-pyran-4-yl)amino)cyclohexyl)-1,3-dihydro-2H-benzo[d]imidazol-2-one] was tested. Which IC50 did it give?
**A.** 21.4 µM

**Q.** For `COc1cc(-c2cc3[nH]c(=O)n([C@H]4CCCN(CCS(C)(=O)=O)C4)c3cc2C(C)C)cn2ncnc12` [Example 222, (S)-6-isopropyl-5-(8-methoxy-[1,2,4]triazolo[1,5-a]pyridin-6-yl)-1-(1-(2-(methylsulfonyl)ethyl)piperidin-3-yl)-1,3-dihydro-2H-benzo[d]imidazol-2-one], which IC50 is on record?
**A.** > 50 µM

**Q.** For `COc1cc(-c2cc3[nH]c(=O)n([C@H]4CC[C@H](NC5CCN(C(C)C)CC5)CC4)c3cc2C(C)C)cn2ncnc12` [Example 207, 6-isopropyl-1-((1r,4r)-4-((1-isopropylpiperidin-4-yl)amino)cyclohexyl)-5-(8-methoxy-[1,2,4]triazolo[1,5-a]pyridin-6-yl)-1,3-dihydro-2H-benzo[d]imidazol-2-one], which IC50 is on record?
**A.** 4.63 µM

**Q.** How did the IC50 turn out when `CCCN[C@H]1CC[C@@H](n2c(=O)[nH]c3cc(-c4cc(OC)c5ncnn5c4)c(C(C)C)cc32)CC1` [Example 195, 6-isopropyl-5-(8-methoxy-[1,2,4]triazolo[1,5-a]pyridin-6-yl)-1-((1 s,4s)-4-(propylamino)cyclohexyl)-1,3-dihydro-2H-benzo[d]imidazol-2-one] was run?
**A.** 13.9 µM
